Measurements as given in patent US20060135587A1, “Method and compounds for promoting healing and reducing inflammation” (priority 2002, published 2006).

Key:
[1] = Rat peripheral blood indicators during full-thickness skin wound treatment; type: in vivo, rats
Procedure: Peripheral blood indicators (leucocytes, leucocyte formula, erythrocyte sedimentation rate) of the rats from the test and control groups were measured before the animals were wounded, and then checked on the fifth, tenth and fifteenth days of the experiment. No reproducible changes compared to the blood characteristics of the intact animals prior to wounding were identified from the haematological indicators of rats treated with Compound 2.

[2] = system: bradykinin-induced inflammation; experiment: Bradykinin-induced acute inflammation in rats; type: in vivo
Procedure: Acute inflammation was induced by sub-plantar injection of 0.1 ml of 0.01% of bradykinin in saline solution into the left paws of male rats weighing 180-200 g. The acuteness of the inflammation was assessed 30 minutes after injection of bradykinin by the change in the paw volume. The anti-inflammatory effect, assessed by the reduction of swelling, was expressed as a percentage of the initial paw […] compared to controls. The test substances were administered orally via an intra-gastric tube for three days and at one hour before administration of bradykinin. […] These were administered orally to rats for 3 days and at one hour before the injection of the agent. There were 12 rats in each group.

[3] = system: chronic active viral hepatitis; experiment: Clinical study in chronic active viral hepatitis; type: in vivo, human; conditions: 600 mg a day orally
Procedure: 45 patients aged between 18 and 32 years old with chronic active viral hepatitis were divided into 4 groups and kept under observation. All patients had received conventional therapy, usually potassium orotate, riboxin and interferon prior to commencement of the trial.
The first group (10 patients) received conventional therapy for 20 days. Assessment of clinical and biochemical indicators and serology data was carried out repeatedly for 20 days after the beginning of treatment.
The second group (10 patients) received both conventional treatment and prednisolone at a dose of […] for 20 days. In this group the clinical-biochemical and serological analysis took place before the treatment, and 10 days and 20 days after the beginning of treatment.
The third group (10 patients) received both conventional treatment and Compound 2 administered orally at a dose of 600 mg a day for 20 days. The control clinical-biochemical and serological analysis was carried out 20 days after the beginning of treatment.
The fourth group (15 patients) received prednisolone either orally or intravenously at a dose of 15 mg a day for 10 days; then prednisolone was stopped and replaced by Compound 2 at a dose of 600 mg a day for 10 days. […]

SMILES: CC[n+]1cn(C)c(C(=O)NC)c1C(=O)NC.O=S(=O)([O-])c1ccccc1 [Compound 2, 1-methyl-3-ethyl-4,5-bis(N-methylcarbamoyl)-imidazolium benzenesulfonate]
- ESR mm/h ([1]; day 5): 2.2 ± 0.6 mm/h
- Leucocyte count (%) Band neutrophils ([1]; day 5): 1.4 ± 0.4%
- Leucocyte count (%) Segmented neutrophils ([1]; day 5): 35.2 ± 4.4%
- Leucocyte count (%) basophils ([1]; day 5): 0%
- Leucocyte count (%) eosinophils ([1]; day 5): 2.6 ± 0.6%
- Leucocyte count (%) lymphocytes ([1]; day 5): 52.6 ± 4.5%
- Leucocyte count (%) monocytes ([1]; day 5): 8.2 ± 0.8%
- Leucocytes 10^9/l ([1]; day 5): 6.6 ± 0.9 10^9/l
- ESR mm/h ([1]; day 10): 1.0 ± 0 mm/h
- Leucocyte count (%) Band neutrophils ([1]; day 10): 1.2 ± 0.2%
- Leucocyte count (%) Segmented neutrophils ([1]; day 10): 29.6 ± 2.2%
- Leucocyte count (%) basophils ([1]; day 10): 0.6 ± 0.2%
- Leucocyte count (%) eosinophils ([1]; day 10): 2.4 ± 0.5%
- Leucocyte count (%) lymphocytes ([1]; day 10): 63.8 ± 1.9%
- Leucocyte count (%) monocytes ([1]; day 10): 2.4 ± 0.5%
- Leucocytes 10^9/l ([1]; day 10): 7.9 ± 0.6 10^9/l
- European Search Report mm/h ([1]; day 15): 1.4 ± 0.2 mm/h
- Leucocyte count (%) Band neutrophils ([1]; day 15): 1.2 ± 0.2%
- Leucocyte count (%) Segmented neutrophils ([1]; day 15): 21.0 ± 3.1%
- Leucocyte count (%) basophils ([1]; day 15): 0.4 ± 0.2%
- Leucocyte count (%) eosinophils ([1]; day 15): 2.8 ± 0.2%
- Leucocyte count (%) lymphocytes ([1]; day 15): 70.6 ± 3.4%
- Leucocyte count (%) monocytes ([1]; day 15): 4.0 ± 0.7%
- Leucocytes 10^9/1 ([1]; day 15): 11.1 ± 1.6 10^9/1
- Increase in paw volume ([2]; 20 mg/kg orally): 0.41 mL
- Paw volume 30 minutes after administration of bradykinin ([2]; 20 mg/kg orally): 1.80 ± 0.060 mL
- Paw volume initial ([2]; 20 mg/kg orally): 1.39 ± 0.040 mL
- Swelling inhibition (%) ([2]; 20 mg/kg orally): 40.58%
- Increase in paw volume ([2]; 50 mg/kg orally): 0.34 mL
- Paw volume 30 minutes after administration of bradykinin ([2]; 50 mg/kg orally): 1.69 ± 0.060 mL
- Paw volume initial ([2]; 50 mg/kg orally): 1.35 ± 0.038 mL
- Swelling inhibition (%) ([2]; 50 mg/kg orally): 50.72%
- clinical picture and biochemical indicators [3]: improves the clinical picture and normalizes biochemical indicators
